{"source": "patent US10017495B2", "about": "“Therapeutically active compounds and their methods of use” (AGIOS PHARMACEUTICALS, INC, priority 2013, dated 2018)", "key": {"[1]": {"test_system": "U87MG pLVX-IDH2 R140Q-neo cells", "assay": "U87MG pLVX-IDH2 R140Q-Neo cell based assay (2-HG in media by LC-MS)", "settings": "48 hours; for IC50: Homo sapiens, U-87 MG", "protocol": "U87MG pLVX-IDH2 R140Q-Neo Cell Based Assay.\nU87MG pLVX-IDH2 R140Q-neo cells are grown in T125 flasks in DMEM containing 10% FBS, 1× penicillin/streptomycin and 500 μg/mL G418. They are harvested by trypsin and seeded into 96 well white bottom plates at a density of 5000 cell/well in 100 μl/well in DMEM with 10% FBS. No cells are plated in columns 1 and 12. Cells are incubated overnight at 37° C. in 5% CO2. The next day compounds are made up at 2× concentration and 100 ul are added to each cell well. The final concentration of DMSO is 0.2% and the DMSO control wells are plated in row G. The plates are then placed in the incubator for 48 hours. At 48 hours, 100 ul of media is removed from each well and analyzed by LC-MS for 2-HG concentrations. The cell plate is placed back in the incubator for another 24 hours. At 72 hours post compound addition, 10 mL/plate of Promega Cell Titer Glo reagent is thawed and mixed. The cell plate is removed from the incubator and allowed to equilibrate to room temperature. Then 100 ul of reagent is added to each well of media. The cell plate is then placed on an orbital shaker for 10 minutes and then allowed to sit at room temperature for 20 minutes. The plate is then read for luminescence with an integration time of 500 ms to determine compound effects on growth inhibition."}, "IDH2 R140Q": {"molecular_target": "T1, IDH2 R140Q (Homo sapiens, UniProt P48735, R140Q)", "T1 sequence (P48735 40-452 R140Q)": "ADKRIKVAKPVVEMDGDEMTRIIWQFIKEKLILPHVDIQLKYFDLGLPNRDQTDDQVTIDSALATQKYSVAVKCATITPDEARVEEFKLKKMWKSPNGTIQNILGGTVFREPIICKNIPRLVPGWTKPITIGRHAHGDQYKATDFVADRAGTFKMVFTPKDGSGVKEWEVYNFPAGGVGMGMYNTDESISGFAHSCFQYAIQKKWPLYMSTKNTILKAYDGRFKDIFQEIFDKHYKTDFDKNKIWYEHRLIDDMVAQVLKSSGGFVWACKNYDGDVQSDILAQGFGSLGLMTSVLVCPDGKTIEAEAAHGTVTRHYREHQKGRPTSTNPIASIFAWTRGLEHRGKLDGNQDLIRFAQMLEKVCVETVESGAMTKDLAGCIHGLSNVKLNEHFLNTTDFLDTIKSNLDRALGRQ", "assay": "IDH2 R140Q enzymatic assay (cofactor depletion assay, diaphorase/resazurin readout)", "assay_type": "biochemical", "settings": "read-out: Enz R140Q", "protocol": "[The source words this procedure for another variant and says it was used here with some conditions changed.] Compounds are assayed for IDH2 R172K inhibitory activity through a cofactor depletion assay. […] The reaction is terminated by the addition of a second enzyme, diaphorase, and a corresponding substrate, resazurin. Diaphorase reduces resazurin to the highly fluorescent resorufin with the concomitant oxidation of NADPH to NADP, both halting the IDH2 reaction by depleting the available cofactor pool and facilitating quantitation of the amount of cofactor remaining after a specific time period through quantitative production of an easily detected fluorophore.\nThe test compound is then incubated for one hour at room temperature with the enzyme; before starting the IDH2 reaction with the addition of 10 μl of substrate mix containing 50 μM NADPH and 6.3 mM α-KG in the buffer described above. After a further one hour of incubation at room temperature, the reaction is halted and the remaining NADPH measured through conversion of resazurin to resorufin by the addition of 25 μl Stop Mix (36 μg/ml diaphorase enzyme and 60 μM resazurin; in buffer). After one minute of incubation the plate is read on a plate reader at Ex544/Em590."}}}
{"compound": "CC(C)Nc1nc(Nc2ccnc(C(F)(F)F)c2)nc(C2=CCCCC2)n1", "note": "[Compound 1, 6-(cyclohex-1-en-1-yl)-N2-isopropyl-N4-(2-(trifluoromethyl)pyridin-4-yl)-1,3,5-triazine-2,4-diamine]", "values": [{"measurement": "IC50", "setting": "[1]", "result": "< 100", "unit": "nM"}, {"measurement": "IC50", "setting": "IDH2 R140Q", "result": "< 100", "unit": "nM"}]}
{"compound": "CC(C)Nc1nc(Nc2ccnc(C(F)(F)F)c2)nc(C2CCCCC2)n1", "note": "[Compound 2]", "values": [{"measurement": "IC50", "setting": "[1]", "result": "< 100", "unit": "nM"}, {"measurement": "IC50", "setting": "IDH2 R140Q", "result": "< 100", "unit": "nM"}]}
{"compound": "CC(C)Nc1nc(Nc2ccnc(C(F)(F)F)c2)nc(C(C)(C)C)n1", "note": "[Compound 3, 6-(tert-butyl)-N2-isopropyl-N4-(2-(trifluoromethyl)pyridin-4-yl)-1,3,5-triazine-2,4-diamine]", "values": [{"measurement": "IC50", "setting": "[1]", "result": "100 to 1000", "unit": "nM"}, {"measurement": "IC50", "setting": "IDH2 R140Q", "result": "100 to 1000", "unit": "nM"}]}
{"compound": "CC(C)Nc1nc(Nc2ccnc(C(F)(F)F)c2)nc(C2CCCC2)n1", "note": "[Compound 4, 6-cyclopentyl-N2-isopropyl-N4-(2-(trifluoromethyl)pyridin-4-yl)-1,3,5-triazine-2,4-diamine]", "values": [{"measurement": "IC50", "setting": "[1]", "result": "100 to 1000", "unit": "nM"}, {"measurement": "IC50", "setting": "IDH2 R140Q", "result": "< 100", "unit": "nM"}]}
{"compound": "CC(C)Nc1nc(Nc2ccnc(C(F)(F)F)c2)nc(C2CCC2)n1", "note": "[Compound 5, 6-cyclobutyl-N2-isopropyl-N4-(2-(trifluoromethyl)pyridin-4-yl)-1,3,5-triazine-2,4-diamine]", "values": [{"measurement": "IC50", "setting": "[1]", "result": "100 to 1000", "unit": "nM"}, {"measurement": "IC50", "setting": "IDH2 R140Q", "result": "< 100", "unit": "nM"}]}
{"compound": "CC(C)Nc1nc(Nc2ccnc(C(F)(F)F)c2)nc(C2=CC(=O)CCC2)n1", "note": "[Compound 6, 3-(4-(isopropylamino)-6-((2-(trifluoromethyl)pyridin-4-yl)amino)-1,3,5-triazin-2-yl)cyclohex-2-enone]", "values": [{"measurement": "IC50", "setting": "[1]", "result": "< 100", "unit": "nM"}, {"measurement": "IC50", "setting": "IDH2 R140Q", "result": "100 to 1000", "unit": "nM"}]}
{"compound": "CC(C)Nc1nc(Nc2ccnc(C(F)(F)F)c2)nc(C2=CC(O)CCC2)n1", "note": "(stereo not shown) [Compound 7, 3-(4-(isopropylamino)-6-((2-(trifluoromethyl)pyridin-4-yl)amino)-1,3,5-triazin-2-yl)cyclohex-2-enol]", "values": [{"measurement": "IC50", "setting": "[1]", "result": "< 100", "unit": "nM"}, {"measurement": "IC50", "setting": "IDH2 R140Q", "result": "< 100", "unit": "nM"}]}
{"compound": "CC(C)Nc1nc(Nc2ccnc(C(F)(F)F)c2)nc(C2CCCC(=O)C2)n1", "note": "(stereo not shown) [Compound 8, 3-(4-(isopropylamino)-6-((2-(trifluoro-methyl)pyridin-4-yl)amino)-1,3,5-triazin-2-yl)cyclohexanone]", "values": [{"measurement": "IC50", "setting": "[1]", "result": "< 100", "unit": "nM"}, {"measurement": "IC50", "setting": "IDH2 R140Q", "result": "100 to 1000", "unit": "nM"}]}
{"compound": "CC1CCCC(c2nc(Nc3ccnc(C(F)(F)F)c3)nc(NC(C)C)n2)C1", "note": "(stereo not shown) [Compound 9]", "values": [{"measurement": "IC50", "setting": "[1]", "result": "100 to 1000", "unit": "nM"}, {"measurement": "IC50", "setting": "IDH2 R140Q", "result": "< 100", "unit": "nM"}]}
{"compound": "CC1CC(C)CC(c2nc(Nc3ccnc(C(F)(F)F)c3)nc(NC(C)C)n2)C1", "note": "(stereo not shown) [Compound 10]", "values": [{"measurement": "IC50", "setting": "IDH2 R140Q", "result": "100 to 1000", "unit": "nM"}]}
{"compound": "CC(C)Nc1nc(Nc2ccnc(C(F)(F)F)c2)nc(C2CCCC(O)C2)n1", "note": "(stereo not shown) [Compound 11, 3-(4-(isopropylamino)-6-((2-(trifluoromethyl)pyridin-4-yl)amino)-1,3,5-triazin-2-yl)cyclohexanol]", "values": [{"measurement": "IC50", "setting": "[1]", "result": "< 100", "unit": "nM"}, {"measurement": "IC50", "setting": "IDH2 R140Q", "result": "< 100", "unit": "nM"}]}
{"compound": "CC(C)Nc1nc(Nc2ccnc(C(F)(F)F)c2)nc(C2=CC(=O)NCC2)n1", "note": "[Compound 12]", "values": [{"measurement": "IC50", "setting": "[1]", "result": "100 to 1000", "unit": "nM"}, {"measurement": "IC50", "setting": "IDH2 R140Q", "result": "< 100", "unit": "nM"}]}
{"compound": "CC(C)Nc1nc(Nc2ccnc(C(F)(F)F)c2)nc(C2CCNC(=O)C2)n1", "note": "(stereo not shown) [Compound 13]", "values": [{"measurement": "Cell R140Q", "setting": "[1]", "result": "No fit"}, {"measurement": "IC50", "setting": "IDH2 R140Q", "result": "1000 to 10000", "unit": "nM"}]}
